According to PubChem BioAssay (NCI):
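How tested: cells in 96-well plates exposed to compound for 48 hours at five concentrations. The concentration for 50% growth inhibition is given as GI50. TGI denotes the concentration required for complete inhibition of growth.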

Key:
Assay in all cases: NCI-60 cell line screen, 48 h
OVCAR-3 ovarian = tested on: OVCAR-3 ovarian
MDA-MB-435 = tested on: MDA-MB-435
SK-MEL-28 melanoma = tested on: SK-MEL-28 melanoma
NCI-H460 lung = tested on: NCI-H460 lung
UACC-257 melanoma = tested on: UACC-257 melanoma
HS 578T breast = tested on: HS 578T breast
UACC-62 melanoma = tested on: UACC-62 melanoma
ACHN renal = tested on: ACHN renal
BT-549 breast = tested on: BT-549 breast
CCRF-CEM leukemia = tested on: CCRF-CEM leukemia

| Structure (SMILES) | GI50 (OVCAR-3 ovarian) | TGI (OVCAR-3 ovarian) | GI50 (MDA-MB-435) | TGI (MDA-MB-435) | GI50 (SK-MEL-28 melanoma) | TGI (SK-MEL-28 melanoma) | GI50 (NCI-H460 lung) | TGI (NCI-H460 lung) | GI50 (UACC-257 melanoma) | TGI (UACC-257 melanoma) | GI50 (HS 578T breast) | TGI (HS 578T breast) | GI50 (UACC-62 melanoma) | TGI (UACC-62 melanoma) | GI50 (ACHN renal) | TGI (ACHN renal) | GI50 (BT-549 breast) | TGI (BT-549 breast) | GI50 (CCRF-CEM leukemia) | TGI (CCRF-CEM leukemia) |
| --- | --- | --- | --- | --- | --- | --- | --- | --- | --- | --- | --- | --- | --- | --- | --- | --- | --- | --- | --- | --- |
| C[CH2][Sn]1([CH2]C)[O]C2C(O)OC(CO)C(O)C2[O]1 (stereo not given) | > 100 µM | > 100 µM | 52.6 µM | > 100 µM | 23.3 µM | 80.4 µM | > 100 µM | > 100 µM | 14.4 µM | 31.8 µM | 25.9 µM | > 100 µM | 17.9 µM | 39.6 µM | 40.3 µM | > 100 µM |  |  |  |  |
| O=[N+]([O-])c1ccc(Oc2cccnc2)c([N+](=O)[O-])c1 | 2.75 µM | 6.99 µM |  |  | 9.49 µM | 23.9 µM | 10.5 µM | 47.8 µM | 8.81 µM | 22.3 µM | 46 µM | > 100 µM | 3.75 µM | 17.3 µM | 3.34 µM | 13 µM | 3.73 µM | 29 µM | 3.22 µM | 24.8 µM |
| c1ccc2c(c1)nnn1c3cnccc3nc21 |  | 55.8 µM |  |  |  | > 100 µM |  | 37.4 µM |  | > 100 µM |  |  |  | > 100 µM |  | > 100 µM |  |  |  | 44.3 µM |
| COC(=O)C(=C\Sc1ccccc1)/C=C/C(=O)OC(C)(C)C |  | 17 µM |  |  |  | 26.2 µM |  | 33.2 µM |  | 26.5 µM |  |  |  | 28.8 µM |  | 17.2 µM |  |  |  | 5.35 µM |
| CCCCCCCCCCCCCCCCc1c(C(=O)OC)[nH]c(=S)[nH]c1=O |  | > 50 µM |  |  |  | > 50 µM |  | > 50 µM |  | > 50 µM |  |  |  | > 50 µM |  | > 50 µM |  |  |  | > 50 µM |
| O=C1OCC2=C1C(c1cccc([N+](=O)[O-])c1)c1cc3c(cc1N2CCO)CCC3 (stereo not given) | 0.0961 µM | 0.518 µM |  |  | 1.3 µM | > 39.9 µM | 0.172 µM | 14.6 µM | 11.5 µM | > 50 µM | 0.18 µM | > 50 µM | 0.0298 µM | > 24.8 µM | 0.398 µM | > 50 µM | 0.177 µM | 5.32 µM | 0.216 µM | > 50 µM |
| [Ce+3].[Cl-].[O-]/N=C(\c1ccccc1)c1ccccn1.[O-]/N=C(\c1ccccc1)c1ccccn1.[O-]/N=C(\c1ccccc1)c1ccccn1 | 21.4 µM | 90.3 µM |  |  | 37.9 µM | > 100 µM | 47.1 µM | > 100 µM | 38 µM | > 100 µM |  |  | 39.7 µM | > 100 µM | 48.9 µM | > 100 µM |  |  | 29.3 µM | > 100 µM |
| Cc1cc(=O)[nH]c(CNC(=O)c2cccc3ccccc23)n1 |  | > 100 µM |  |  |  | > 100 µM |  | > 100 µM |  | > 100 µM |  |  |  | > 100 µM |  | > 100 µM |  |  |  | > 100 µM |
| COC(=O)C1C(=O)O[C@@H](c2ccc(OC)cc2)C1C(=O)OC (stereo not given in full) |  | > 100 µM |  |  |  | > 100 µM |  |  |  | > 100 µM |  |  |  | > 100 µM |  | > 100 µM |  |  |  | > 100 µM |
| O=C(Nc1cccnc1)c1cccs1 | 1.19 µM | > 100 µM | 2.43 µM | > 100 µM | 0.677 µM | > 100 µM | 6.6 µM | > 100 µM | > 100 µM | > 100 µM | > 100 µM | > 100 µM | 28.1 µM | > 100 µM | 8.98 µM | > 100 µM | 6.78 µM | > 100 µM |  |  |
| NCC(=O)Nc1ccc(-n2nc(C(F)(F)F)cc2-c2ccc3c(ccc4ccccc43)c2)cc1 | 1.34 µM | 2.65 µM |  |  | 1.45 µM | 2.81 µM | 0.307 µM | 1.74 µM | 1.66 µM | 3.31 µM |  |  |  |  | 1.23 µM | 2.54 µM |  |  | 0.746 µM | 4.16 µM |
| Cc1cc(NC(=O)NC(=O)c2ccccc2[N+](=O)[O-])ccc1Oc1ncc(Cl)cn1 |  | 1.34 µM |  |  |  | 98 µM |  | 18.8 µM |  | > 100 µM |  |  |  | > 31.6 µM |  | 42.1 µM |  | 91.5 µM |  | > 100 µM |
| COC(=O)C1=C2C3=C(C(=O)c4ccccc4C3=O)N(Cc3ccccc3)C2(OC(C)=O)C=CC1=O (stereo not given) |  |  | 9.52 µM | 25.3 µM | 27.8 µM | 66.7 µM | 5.93 µM | > 100 µM | 29.6 µM | > 100 µM | 22 µM | 71.3 µM | 10.6 µM | 32.7 µM | 8.4 µM | 26.4 µM | 6.9 µM | 34.8 µM | 0.378 µM | > 100 µM |
| Nc1ccccc1C#Cc1ccccc1C#Cc1ccccc1N | 2.22 µM | 8.24 µM | 1.31 µM | 4.39 µM | 15.1 µM | 87.8 µM | 5.89 µM | > 100 µM | 30.1 µM | > 100 µM |  |  | 6.93 µM | 21.2 µM | 14 µM | 29.7 µM | 5.41 µM | 24.7 µM | 3.21 µM | 16.2 µM |
| CC(/C=C/C=C/C=C/C=C/C=C/C(O)=C1/C(=O)C(CCC(=O)O)N(C)C1=O)=C\C(C)C(OC1CC(O)C(O)C(C)O1)C(C)C (stereo not given) |  | 5.12 µM |  | 7.93 µM |  | 10.1 µM |  | 10.1 µM |  | 6.66 µM |  | 32.3 µM |  |  |  | 10.4 µM |  | 7.1 µM |  | 8.47 µM |
| O=C(Nc1cccc(-n2cc(-c3ccncc3)c(-c3cc(O)cc(Cl)c3)n2)c1)Nc1ccc(Cl)c(Cl)c1 | 1.96 µM | 5.05 µM |  |  | 2.14 µM | 5.55 µM | 2.18 µM | 6.14 µM | 1.95 µM | 4.3 µM | 3.23 µM | > 100 µM | 1.69 µM | 3.76 µM | 2.21 µM | 8.71 µM | 2.06 µM | 5.22 µM |  |  |
| CCC1(O)C(=O)OCc2c1cc1n(c2=O)Cc2c-1nc1ccccc1c2OC (stereo not given) |  | 5.85 µM |  |  |  | > 53.8 µM |  |  |  | 2.68 µM |  |  |  | 0.413 µM |  | 0.06 µM |  |  |  | < 0.01 µM |
| Cc1ccc(NC(=O)C2C(=O)C(=O)N(c3ccc(C)cc3)C2=O)cc1 (stereo not given) |  |  |  |  |  |  |  | > 100 µM |  | > 100 µM |  |  |  | > 100 µM |  | > 100 µM |  |  |  | > 100 µM |
